Measured values from patent publication US6492520B1, “Substituted pyrido-or pyrimido-containing 6,6- or 6,7-bicyclic derivatives” (Pfizer Inc, priority 1996, dated 2002).

`CCC(CC)N1CCNc2c1cc(C)nc2Oc1c(C)cc(C)cc1C` [Example 4, 1-(1-Ethyl-propyl)-7-methyl-5-(2,4,6-trimethyl-phenoxy)-1,2,3,4-tetrahydro-pyrido[3,4-b]pyrazine] gave a melting point of 138 to 140 °C.
